Experimental data reported in patent US8455510B2.
Where “and” joins values, the source holds several entries; their conditions need not be identical. Equal entries are not always repeated. Where two headings read alike, the source gives them in different places.

How the values were obtained:
[1] = Immunosuppressive activity assay: cytotoxicity; format: cell-based; details: Table 10
[2] = system: DNFB-induced delayed type hypersensitivity reaction; test: DNFB-induced delayed type hypersensitivity reaction in mice; format: in vivo, BALB/c mice; details: 1.5 mg/kg/d, intraperitoneal injection; model control 0.175 mm
Method: The delayed type hypersensitivity (DTH) reaction in mice was induced by DNFB to evaluate the inhibition effect of the compound on DTH in vivo. […] Preparation method: the compound was dissolved in anhydrous alcohol to prepare a stock solution (50 mg/ml), which was diluted to the desired concentration when use by using a solution of 5% PEG400, 5% Tween-80 in sterile water as a solvent. […] DNFB combined with dermal protein to form a complete antigen after sensitizing on feet of mice. One week later, mice were attacked by DNFB on ears to induce a local delayed allergic reaction, i.e., the delayed type hypersensitivity reaction to cause ear swelling, while the delayed type hypersensitivity reaction would not be observed on the ear which had not been attacked. Therefore, the ear swelling can reflect the level of the delayed type hypersensitivity reaction in mice induced by DNFB. (1) 20 μl of 0.5% DNFB solution in a mixture of acetone and olive oil (4:1) as a solvent was applied on both hind legs of mice for sensitization. […] (4) Thickness of the left and right ears of the mice was measured by a micrometer screw gauge, and the swelling was calculated by subtracting the thickness of the left ear from thickness of the right ear.

[3] = system: SRBC-induced specific antibody-producing cells in spleen lymphocytes; test: Quantitative hemolysis of sheep red blood cells (QHS) assay; format: in vivo, BALB/c mice; details: 1.5 mg/kg, intraperitoneal injection
Excerpt: It is a classic experimental method to determine the generation of antigen-specific antibody with SRBC hemolytic reaction in SRBC-induced mouse humoral immunity model. The quantitative hemolysis of sheep red blood cells (QHS) assay is an experimental method for evaluating the amount of the antibody secreted, which is based on the principle that the sheep red blood cells are hemolyzed by the anti-SRBC specific antibody secreted by B lymphocytes (plasma cells) to release haemoglobin. After mice are sensitized by sheep red blood cells (SRBC), there will appear cells which can secrete specific antibody in mouse spleen lymphocytes. The Antibody secreted by such cells could hemolyze SRBC with the synergistic action of the complement. Therefore, the amount of the cells secreting the specific antibody can be evaluated by determining the hemolytic degree by spectrophotometry. […] BALB/c mice were randomly divided into 5 groups with 6 mice in each group. […] When immunized, the mice in each group were administered by intraperitoneal injection once daily until 5 days after the immunization. The mice in model control group were administered daily with the solvent. 2. […] Each mice was introperitoneally injected with 0.2 ml of the diluted SRBC for sensitizing. 3. QHS assay was carried out 5 days after the sensitization: The mouse spleen was collected to produce the spleen lymphocytes. […] The mixture was kept at 37° C. for 1 hour, and then centrifugated at 3000 rpm for 10 min. […] The quantitative hemolysis of sheep red blood cells (QHS) assay uses the amount of haemoglobin (OD value) released from the hemolysis of red blood cells by the antibody secreted by B cells to indicate the level of humoral immunity in body. Inhibition of specific antibody-secreting cells %=(OD of model control group-OD of administration group)/(OD of model control group-OD of normal control group)

[4] = Distribution profile of prototype drug and rapamycin in plasma, liver and tumor of nude mice (LC-MS); format: in vivo; set-up: AUC0-t (ng · h/g or ng · h/ml): concentration or dose not given beside the values; details: for concentration at 0.5 h / concentration at 2 h / concentration at 5 h: nude, mouse; for AUC0-t (ng · h/g or ng · h/ml): substance determined: Sirolimus
[5] = system: normal mouse spleen B lymphocytes induced by LPS; test: 3H-TdR incorporation, LPS-induced B lymphocyte proliferation; format: cell-based, BALB/c mice; details: LPS, 48 hours, 3H-TdR, read-out: IC50, proliferation of B lymphocytes induced by LPS
Method: (§1) ^3H-thymidine incorporation was adopted to measure the effect of the in vitro administered compound on the proliferation function of the spleen lymphocytes of normal mice induced by a mixed culture of mitogen/allogeneic mouse spleen lymphocytes, and evaluate the in vitro immunosuppressive activity of the compound.
(§2) Measurement of the effects of compounds on the proliferation function of mouse spleen lymphocytes induced by mitogen by ^3H-TdR incorporation: 100 μl cell suspension of mouse spleen lymphocytes was inoculated on a 96-well plate (4×10^5 per well), followed by addition of 50 μl of ConA (final concentration: 5 μg/ml), 50 μl of LPS (final concentration: […]) or 50 μl of compound at different concentrations. The total volume of each well was 200 μl. The test was carried out in triplicate wells for each concentration, and included control wells without ConA/LPS or the compound. After the 96-well plate was placed in an incubator at 37° C. with 5% CO2 for 48 hours, 25 μl of ^3H-thymidine (10 μCi/ml) was added in each well 8 hours before the end of incubation. […] The amount of ^3H-TdR incorporated in cell DNA was determined by a Beta cell counter (MicroBeta Trilux, PerkinElmer), and the cell proliferation was represented as a cpm value.

[6] = system: human rhabdomyosarcoma RH-30 xenograft; test: RH-30 xenograft on nude mice; details: 1-5/2 w; for TV (mm^3) d0: baseline;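 for all read-outs here: male BALB/cA nude mice with subcutaneous RH-30 tumors, oral dosing versus solvent-fed controls, caliper tumor volume, RTV relative to grouping day, T/C as treated RTV over control RTV ×100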
Excerpt: Animals: BALB/cA nude mice, male, 40-45 days old, body weight: 21±2 g, provided by Shanghai Institute of Materia Medica, Chinese Academy of Sciences. License No.: SCXK (Shanghai) 2004-0002. Animal number in each group: 6 in negative control group, and 6 in administration group.
The amount of inoculated cells was 5×10^6. After the xenograft was formed by inoculation, it was used after passed for 3 generations in nude mice.

[7] = system: normal mouse spleen T lymphocytes induced by ConA; test: 3H-TdR incorporation, ConA-induced T lymphocyte proliferation; format: cell-based, BALB/c mice; details: ConA 5 μg/ml, 48 hours, 3H-TdR, read-out: IC50, proliferation of T lymphocytes induced by ConA
Method: as §1, §2

[8] = 0.5 h after administration, individual animals
[9] = 2.0 h after administration, individual animals
[10] = 5.0 h after administration, individual animals
[11] = 12 h after administration, individual animals
[12] = 48 h after administration, individual animals

CO[C@H]1C[C@@H]2CC[C@@H](C)[C@@](O)(O2)C(=O)C(=O)N2CCCC[C@H]2C(=O)O[C@H]([C@H](C)C[C@@H]2CC[C@@H](OC(=O)OCC(O)CO)[C@H](OC)C2)CC(=O)[C@H](C)/C=C(\C)[C@@H](O)[C@@H](OC)C(=O)[C@H](C)C[C@H](C)/C=C/C=C/C=C/1C (stereo partly shown) [Y31]
Safety Index CC50/IC50 [1]: 1860.0
CC50 ([1]; read-out: Cytotoxicity CC50): 93000 nM
average ear swelling degree [2]: 0.129 mm
Inhibition of Specific Antibody-secreting cells % [3]: 93.03%
Quantitative hemolysis OD Value ([3]; model control 0.3887, normal control 0.3036): 0.3095
Y31 (prototype) concentration, Blood Plasma [4, 8]: 2.47 ng/mL and 3.03 ng/mL
Y31 (prototype) concentration, Liver [4, 8]: 14.3 ng/g and 6.24 ng/g and 8.61 ng/g
Y31 (prototype) concentration, Tumor [4, 8]: BLQ (BLQ: below the limit of Quantitation, 0.2 ng/ml (blood plasma); 1.0 ng/g(tissue))
Y31 (prototype) concentration, Blood Plasma [4, 9]: 0.70 ng/mL and 0.58 ng/mL and 0.20 ng/mL
Y31 (prototype) concentration, Liver [4, 9]: 13.4 ng/g and 17.4 ng/g
Y31 (prototype) concentration, Tumor [4, 9]: BLQ (BLQ: below the limit of Quantitation, 0.2 ng/ml (blood plasma); 1.0 ng/g(tissue))
Y31 (prototype) concentration, Blood Plasma [4, 10]: BLQ (BLQ: below the limit of Quantitation, 0.2 ng/ml (blood plasma))
Y31 (prototype) concentration, Liver [4, 10]: 0.88 ng/g and 0.91 ng/g and 2.16 ng/g
Y31 (prototype) concentration, Tumor [4, 10]: BLQ (BLQ: below the limit of Quantitation, 0.2 ng/ml (blood plasma); 1.0 ng/g(tissue))
Y31 (prototype) concentration, Blood Plasma [4, 11]: BLQ (BLQ: below the limit of Quantitation, 0.2 ng/ml (blood plasma))
Y31 (prototype) concentration, Liver [4, 11]: BLQ (BLQ: below the limit of Quantitation, 0.2 ng/ml (blood plasma); 1.0 ng/g(tissue))
Y31 (prototype) concentration, Tumor [4, 11]: BLQ (BLQ: below the limit of Quantitation, 0.2 ng/ml (blood plasma); 1.0 ng/g(tissue))
Y31 (prototype) concentration, Blood Plasma [4, 12]: BLQ (BLQ: below the limit of Quantitation, 0.2 ng/ml (blood plasma))
Y31 (prototype) concentration, Liver [4, 12]: BLQ (BLQ: below the limit of Quantitation, 0.2 ng/ml (blood plasma); 1.0 ng/g(tissue))
Y31 (prototype) concentration, Tumor [4, 12]: BLQ (BLQ: below the limit of Quantitation, 0.2 ng/ml (blood plasma); 1.0 ng/g(tissue))
maximum concentration of the prototype drug in blood plasma and tissues ([4]; after administration to nude mice): less than 20 ng/ml or ng/g
prototype drug 5 hours after the administration ([4]; blood plasma and tissues): not detectable
concentration at 0.5 h ([4]; liver, 0.5 h after administration, mean of 3 animals, read-out: Y31 (prototype) concentration, Liver, Mean Value): 9.72 ng/g
concentration at 2 h ([4]; liver, 2.0 h after administration, individual animals, read-out: Y31 (prototype) concentration, Liver): 12.4 ng/g
concentration at 2 h ([4]; liver, 2.0 h after administration, mean of 3 animals, read-out: Y31 (prototype) concentration, Liver, Mean Value): 14.4 ng/g
concentration at 5 h ([4]; liver, 5.0 h after administration, mean of 3 animals, read-out: Y31 (prototype) concentration, Liver, Mean Value): 1.32 ng/g
concentration at 0.5 h ([4]; plasma, 0.5 h after administration, individual animals, read-out: Y31 (prototype) concentration, Blood Plasma): 1.7 ng/mL
concentration at 0.5 h ([4]; plasma, 0.5 h after administration, mean of 3 animals, read-out: Y31 (prototype) concentration, Blood Plasma, Mean Value): 2.4 ng/mL
concentration at 2 h ([4]; plasma, 2.0 h after administration, mean of 3 animals, read-out: Y31 (prototype) concentration, Blood Plasma, Mean Value): 0.49 ng/mL
concentration at 5 h ([4]; plasma, 5.0 h after administration, individual animals, read-out: Y31 (prototype) concentration, Blood Plasma): 0.18 ng/mL
AUC0-t (ng · h/g or ng · h/ml) ([4]; Liver): 4031 ng·h/g
AUC0-t (ng · h/g or ng · h/ml) ([4]; Tumor): 2948 ng·h/g
IC50 [5]: 97.8 nM
Body Weight (g) end ([6]; Table 4, 2.5 mg/kg po): 21.2 g
Body Weight (g) start ([6]; Table 4, 2.5 mg/kg po): 19.2 g
RTV ([6]; Table 4, 2.5 mg/kg po): 1.6 ± 0.6
T/C (%) ([6]; Table 4, 2.5 mg/kg po): 37.1%
TV (mm^3) d14 ([6]; Table 4, 2.5 mg/kg po): 259 ± 130 mm^3
TV (mm^3) d0 ([6]; Table 4, 2.5 mg/kg po): 159 ± 36 mm^3
Body Weight (g) end ([6]; Table 4, 5 mg/kg po): 21.7 g
Body Weight (g) start ([6]; Table 4, 5 mg/kg po): 20.8 g
RTV ([6]; Table 4, 5 mg/kg po): 2.0 ± 0.5
T/C (%) ([6]; Table 4, 5 mg/kg po): 45.5%
TV (mm^3) d14 ([6]; Table 4, 5 mg/kg po): 316 ± 153 mm^3
TV (mm^3) d0 ([6]; Table 4, 5 mg/kg po): 160 ± 53 mm^3
IC50 [7]: 331 nM
